Test results taken from patent publication US9649279B2, “Fortified micronutrient salt formulations” (Massachusetts Institute of Technology, priority 2013, dated 2017).
Entries after “also recorded” stand apart in the source; their conditions may differ.

How the values were obtained:
[1] = Vitamin C stability and recovery under cooking conditions; format: physicochemical
Protocol: Formulations were tested for factors that increase stability and leakage characteristics for particular nutrients.
Ascorbic acid can become oxidixed and hydrolyzed, resulting in reduced bioactivity. Compounds specifically identified as stabilizing ascorbic acid, trans-Ferulic Acid (FA), Caffeic Acid (CA), and p-Coumaric Acid (p-CA), can be used in the particles and matrix to stabilize vitamin C.
To increase the loading of the ascorbic acid in the formulations, large amounts of ascorbic acid need to be added in the initial formulation process. However, the use of large amount of ascorbic acid can lower the pH of the water during the formulation, and this low pH condition can also dissolve the polymer we use to make the microparticles. To avoid this low pH issue, sodium ascorbate, which has equivalent bioactivity as ascorbic acid, can be used. Over 60 wt % of sodium ascorbate (NaAA) can be recovered after 2 hrs heating at 100° C.

[2] = enteric coated, three month storage, 25° C./20% RH and 45° C./60% RH; cited from earlier work
[3] = In vitro release of micronutrients from EPO microspheres; format: physicochemical; conditions: for release in SGF / release in SGF after 0.5 hours: SGF at 37° C.; for release in water: water at room temperature and 100° C.
Source text: Eight essential micronutrients, presented in Table 3, were encapsulated and their release studied in vitro.
In-house assays were developed for micronutrient detection and determination of encapsulation efficiency and release kinetics.

[4] = Release of EPO-coated micronutrients in water then SGF (ELISA); format: physicochemical; conditions: for release in SGF / release in water: 5% EPO coating; for release in SGF: SGF at 37° C., after one hour; for release in water: water at 25° C. and 100° C., one hour; for stability in the formulations by ELISA: not degraded or denatured
Protocol: To mimic food preparation then ingestion, the samples were submerged in 4 mL water (at 25° C. or 100° C.) for one hour and transferred to 4 mL simulated gastric fluid at 37° C. for two hours.

[5] = Vitamin D3 stability and recovery; format: physicochemical
Protocol: Vitamin D3 is not stable under heat. Alteration involves ring-closure that allows generation of pyro- and isopyro-isomers. […] However, it degraded in water at 100° C. after 2 hours. The recovery of vitamin D3 in water at 100° C. is concentration-dependent. When the starting amount of vitamin D3 increased, the recovery after 2 hours cooking also went up, from 2% (15 μg), to 12% (60 μg), to 40% (240 μg), and to 60% (1 mg). The encapsulation of vitamin D3 in EPO matrix helped to stabilize the vitamin D3. The characteristic absorbance peak of vitamin D3 was preserved in D3-EPO after 100° C. in water for 2 hours. […] With HPLC, the recovery of D3 in D3-EPO was quantified to be around 47%.

[6] = Autoclaving of vitamin B12 in EPO-HA microspheres; format: physicochemical; conditions: 16 psig and 250° F. for 30 minutes
Protocol: Vitamin B12 was encapsulated in the EPO-HA microspheres and subjected to autoclaving. The autoclaving conditions were 16 psig and 250° F. for 30 minutes. […] Thus, the formulations can survive and prevent the leakage of MNs under autoclaving conditions.

O=C1O[C@H]([C@@H](O)CO)C([O-])=C1O.[Na+] [NaAA, sodium ascorbate]
recovered after heating ([1]; 2 hrs heating at 100° C.): Over 60 wt %

CCCCCCCCCCCCCCCC(=O)OC/C=C(C)/C=C/C=C(C)/C=C/C1=C(C)CCCC1(C)C [Vitamin A, Retinyl Palimitate]
losses of the micronutrient after storage [2]: 50-99% | release in SGF ([3]; EPO-MS): Complete release | release in water ([3]; EPO-MS): limited release

Nc1nc2ncc(CNc3ccc(C(=O)N[C@@H](CCC(=O)O)C(=O)O)cc3)nc2c(=O)[nH]1 [Vitamin B9, folic acid]
release in SGF [4]: near complete release | release in SGF ([4]; listed as B9): released all | release in water [4]: negligible release | release in water ([4]; listed as B9): no release | stability in the formulations by ELISA [4]: stable | release in SGF after 0.5 hours ([3]; EPO-gelatin-microspheres): Complete release | release in 100° C. boiling water ([3]; EPO-gelatin-microspheres, two hours): Slight leakage | release at room temperature ([3]; EPO-gelatin-microspheres, water, room temperature, two hours): Limited release

O=C1O[C@H]([C@@H](O)CO)C(O)=C1O [Vitamin C, Ascorbic acid]
release during cooking at 100° C. ([1]; increased concentration of the polymer coating): significantly reduced | release in SGF after 0.5 hours ([3]; EPO-MS): Complete release | release in water after two hours ([3]; EPO-MS, room temperature and 100° C. boiling water, two hours): Limited release

C=C1CC[C@H](O)C/C1=C/C=C1\CCC[C@]2(C)[C@@H]([C@H](C)CCCC(C)C)CC[C@@H]12 [Vitamin D3, cholecalciferol]
release in SGF ([3]; EPO-MS): Fast and complete release | release in water ([3]; EPO-MS): slow and limited release | characteristic absorbance peak (UV spectrum) after heating ([5]; 100° C. in water for 2 hours): totally degraded | stability in acidic condition ([5]; SGF (pH=1.2) at 37° C.): stable | stability in water at 100° C. ([5]; water, 100° C., after 2 hours): degraded | stability in water at room temperature ([5]; water, room temperature): stable

Vitamin B12
leakage under autoclaving [6]: No severe leakage | release in SGF [4]: released all; also recorded: near complete release | release in water [4]: no release; also recorded: negligible release | stability in the formulations by ELISA [4]: stable | effect of 1% oil during boiling on release ([3]; boiling, two hours, 1% oil added): did not increase release
